System: subjects with ciDME who have had prior anti-VEGF treatment
Experiment: Study 2: sham-controlled monthly intravitreal injections, BCVA (ETDRS) efficacy
Format: in vivo, human
Design: BCVA (letters): any loss from baseline, Diff. v. sham / BCVA: ≥5 letter loss from baseline, Diff. v. sham / BCVA: ≥10 letter loss from baseline, Diff. v. sham / BCVA: ≥15 letter loss from baseline, Diff. v. sham: unit not given here
Conditions: for BCVA: ≥10 letter loss from baseline, Diff. v. sham / BCVA: ≥15 letter loss from baseline, Diff. v. sham / BCVA (letters): any loss from baseline, Diff. v. sham / BCVA: ≥5 letter loss from baseline, Diff. v. sham: week 16
Excerpt: To investigate monthly dosing of intravitreal (IVT) injection of the compound of Formula A in subjects with ciDME who have had prior anti-VEGF treatment. In particular, to evaluate any effect on the efficacy in the treatment, prevention, or prevention of worsening of ciDME in subjects who have had prior anti-VEGF treatment.
This study was a randomized, sham-controlled, double-masked, 3-arm study into efficacy, safety and tolerability of monthly intravitreal injections of the compound of Formula A as a monotherapy in adult subjects with ciDME. The subjects had all had prior anti-VEGF treatment.
129 adult subjects were chosen using the following inclusion criteria: • 1. Male or female adult subjects 18 years of age and older. • 2. Confirmed diagnosis of Type I or Type II diabetes mellitus (DM). Any of the following were sufficient: • a. Current regular use of insulin for the treatment of diabetes • b. Current regular use of oral anti-hyperglycemia agents for the treatment of diabetes • c. Documented diabetes by American Diabetes Association and/or World Health Organization (VVHO) criteria. • 3. Best Corrected Visual Acuity (BCVA), using Standard Early Treatment Diabetic Retinopathy Study (ETDRS) chart, of ≥19 letters (˜20/400) and ≤73 letters (˜20/40) in the study eye and ≥34 letters (˜20/200 or better) in the fellow eye at Screening and Day 1. • 4. Presence of ciDME in the study eye defined as Heidelberg Spectralis Optical Coherence Tomography (SD-OCT) CST ≥305 μm in women and ≥320 μm in men in the study eye (as assessed at Screening by the Investigator and Central Image Reading Center (CIRC) and on Day 1 by the Investigator). • 5. Subjects' first anti-VEGF injection in the study eye occurred 36 months prior to Day 1. • 6. Subjects received at least 3 anti-VEGF injections in the study eye within a 6-month period within the 36 months prior to Day 1. • 7. Subject's' last anti-VEGF injection in the study eye was 8 weeks prior to Day 1. • 8. Subjects, who in the view of the Investigator, were able to defer treatment in the study eye for at least 6 months following Day 1. • 9. […] Provide signed informed consent and were willing and capable of complying with clinic visits and study procedures.
The 129 eligible subjects were randomized approximately 1:1:1 into three arms: • 1. Arm 1, N=44: • Received injections of 3 μg/eye (100 μL injection volume at a concentration of 30 μg/mL) of the compound of formula A; • 2. Arm 2, N=41: • Received injections of 6 μg/eye (100 μL injection volume at a concentration of 60 μg/mL) of the compound of formula A; and • 3. Arm 3, N=44: • Received a sham procedure; during a 12-week, double-masked treatment period (a total of 4 doses given at approximately monthly intervals).
Subjects visited the study clinic on Day 1 and Weeks 4, 8, and 12 during the Treatment Phase for study drug administration or sham procedure, safety, and ophthalmic assessments.
The ophthalmic assessments were carried out in approximately the following order at the subjects' visits to the study clinic on Day 1, and Weeks 4, 8 and 12: • BCVA (must be performed prior to all other ophthalmic procedures) • Slit lamp biomicroscopy • Pre-Injection IOP/IOP at visits with no study drug administration (must be done prior to dilation) • Dilated indirect ophthalmoscopy • Fundus photography • SD-OCT • Intravitreal injection • Post-Injection IOP
All subjects visited the clinic at Weeks 16, 20, and 24 after the last study drug administration or sham procedure for safety and ophthalmic assessments. The visit window for Weeks 16, 20, and 24 is ±7 days.
The assessment measured change from baseline in BCVA letter count in the study eye at Week 16. Change from baseline in BCVA letter count is calculated as Week 16 BCVA letter count minus Day 1 BCVA letter count such that a negative difference indicates a worsening in vision. […]

Question: For `CCOc1ccc(C[C@@H](NC(=O)c2ccccc2)C(=O)N[C@@H](Cc2ccccc2)C(=O)NCc2ccc(CN)cc2)cc1` [compound of Formula A, N—[(R)-1-[(S)-1-(4-Aminomethyl-benzylcarbamoyl)-2-phenyl-ethylcarbamoyl]-2-(4-ethoxy-phenyl)-ethyl]-benzamide], which “BCVA improvement (letters), change versus sham, mean” value (3 μg, 4 weeks, positive value is improvement) is on record?
Answer: Its value is 0.6 letters.

Question: And the “BCVA improvement (letters), change versus sham, mean” value (3 μg, 8 weeks, positive value is improvement)?
Answer: Its value is 1.2 letters.

Question: And the “BCVA improvement (letters), change versus sham, mean” value (3 μg, 12 weeks, positive value is improvement)?
Answer: The value was 3.8 letters.

Question: What about the “BCVA improvement (letters), change versus sham, mean” value (3 μg, 16 weeks, positive value is improvement) of the same compound?
Answer: The value was 1.5 letters.

Question: What about the “BCVA improvement (letters), change versus sham, mean” value (3 μg, 20 weeks, positive value is improvement) of the same compound?
Answer: The value was −1.2 letters.

Question: And the “BCVA improvement (letters), change versus sham, mean” value (3 μg, 24 weeks, positive value is improvement)?
Answer: Its value is −0.7 letters.

Question: What about the “BCVA (letters): any loss from baseline, (%)” value (3 μg, week 16, n = 44) of the same compound?
Answer: The value was “(50.0) %”.

Question: And the “BCVA: ≥5 letter loss from baseline, (%)” value (3 μg, week 16, n = 44)?
Answer: Its value is “(25.0) %”.

Question: And the “BCVA: ≥10 letter loss from baseline, (%)” value (3 μg, week 16, n = 44)?
Answer: The value was “(9.1) %”.

Question: And the “BCVA: ≥15 letter loss from baseline, (%)” value (3 μg, week 16, n = 44)?
Answer: Its value is “(4.5) %”.

Question: What about the “BCVA: ≥10 letter loss from baseline, Diff. v. sham” value (3 μg, p-value 0.228) of the same compound?
Answer: The value was −11.4.

Question: And the “BCVA: ≥15 letter loss from baseline, Diff. v. sham” value (3 μg, p-value 0.4336)?
Answer: The value was −6.8.

Question: What about the “BCVA (letters): any loss from baseline, Diff. v. sham” value (3 μg, p-value 0.6695) of the same compound?
Answer: Its value is −4.5.

Question: And the “BCVA: ≥5 letter loss from baseline, Diff. v. sham” value (3 μg, p-value 0.8083)?
Answer: Its value is −2.3.

Question: And the “Improvement in BCVA (letters) score compared to sham after the treatment period (in words)” value (6 μg doses, through to the 24 week time period)?
Answer: Its value is “maintained”.

Question: And the “BCVA improvement (letters), change versus sham, mean” value (6 μg, all subjects, 4 weeks, positive value is improvement)?
Answer: Its value is 0.9 letters.

Question: And the “BCVA improvement (letters), change versus sham, mean” value (6 μg, all subjects, 8 weeks, positive value is improvement)?
Answer: Its value is 1.1 letters.

Question: What about the “BCVA improvement (letters), change versus sham, mean” value (6 μg, all subjects, 12 weeks, positive value is improvement) of the same compound?
Answer: Its value is 2.9 letters.

Question: And the “BCVA improvement (letters), change versus sham, mean” value (6 μg, all subjects, 16 weeks, positive value is improvement)?
Answer: Its value is 2.6 letters.

Question: What about the “BCVA improvement (letters), change versus sham, mean” value (6 μg, all subjects, 20 weeks, positive value is improvement) of the same compound?
Answer: The value was 2.0 letters.

Question: And the “BCVA improvement (letters), change versus sham, mean” value (6 μg, all subjects, 24 weeks, positive value is improvement)?
Answer: The value was 2.1 letters.

Question: What about the “BCVA improvement (letters), change versus sham, mean” value (6 μg, early stage subjects (baseline BCVA >55 letters), 4 weeks) of the same compound?
Answer: The value was 2.3 letters.

Question: What about the “BCVA improvement (letters), change versus sham, mean” value (6 μg, early stage subjects (baseline BCVA >55 letters), 8 weeks) of the same compound?
Answer: The value was 1.8 letters.

Question: And the “BCVA improvement (letters), change versus sham, mean” value (6 μg, early stage subjects (baseline BCVA >55 letters), 12 weeks)?
Answer: The value was 4.7 letters.

Question: And the “BCVA improvement (letters), change versus sham, mean” value (6 μg, early stage subjects (baseline BCVA >55 letters), 16 weeks)?
Answer: Its value is 4.9 letters.

Question: What about the “BCVA improvement (letters), change versus sham, mean” value (6 μg, early stage subjects (baseline BCVA >55 letters), 20 weeks) of the same compound?
Answer: The value was 3.5 letters.

Question: And the “BCVA improvement (letters), change versus sham, mean” value (6 μg, early stage subjects (baseline BCVA >55 letters), 24 weeks)?
Answer: Its value is 2.9 letters.

Question: And the “BCVA (letters): any loss from baseline, (%)” value (6 μg, week 16, n = 41)?
Answer: Its value is “(32.5) %”.

Question: What about the “BCVA: ≥5 letter loss from baseline, (%)” value (6 μg, week 16, n = 41) of the same compound?
Answer: Its value is “(20.0) %”.

Question: And the “BCVA: ≥10 letter loss from baseline, (%)” value (6 μg, week 16, n = 41)?
Answer: Its value is “(5.0) %”.

Question: What about the “BCVA: ≥15 letter loss from baseline, (%)” value (6 μg, week 16, n = 41) of the same compound?
Answer: Its value is “(0) %”.

Question: What about the “BCVA (letters): any loss from baseline, Diff. v. sham” value (6 μg, p-value 0.0421) of the same compound?
Answer: The value was −22.0.

Question: And the “BCVA: ≥10 letter loss from baseline, Diff. v. sham” value (6 μg, p-value 0.0516)?
Answer: The value was −15.5.

Question: What about the “BCVA: ≥15 letter loss from baseline, Diff. v. sham” value (6 μg, p-value 0.0565) of the same compound?
Answer: Its value is −11.4.

Question: And the “BCVA: ≥5 letter loss from baseline, Diff. v. sham” value (6 μg, p-value 0.4344)?
Answer: The value was −7.3.

Question: And the “Average improvement in BCVA score of early stage patients versus overall population (in words)” value (baseline BCVA greater than 55 letters, every measurement taken)?
Answer: Its value is “consistently better average improvement in BCVA score than the overall average population score”.

Question: What about the “Progression of DME or impaired visual acuity (in words)” value (subjects that had previously had anti-VEGF treatment) of the same compound?
Answer: The value was “slowing of the progression”.

Reference: patent US20220401390A1, “TREATMENTS OF DIABETIC MACULAR EDEMA AND IMPAIRED VISUAL ACUITY” (KALVISTA PHARMACEUTICALS LIMITED, priority 2019, published 2022)
